The experiment is described as follows: Inhibitory activity against clostridium histolyticum collagenase.

43 compounds from BindingDB's records for doi:10.1021/jm010087e (The University of Western Australia, 2001) can be followed below.

Broadly, the Ki is the equilibrium dissociation constant of an inhibitor or competing ligand from its target. In the case of `CC(C(=O)O)N(Cc1ccccc1[N+](=O)[O-])C(=O)NS(=O)(=O)c1ccccc1` (stereo not drawn) [2-((2-nitrobenzyl){[(phenylsulfonyl)amino]carbonyl}amino)propanoic acid], the Ki was found to be 3600 nM.

Take `COc1ccc(S(=O)(=O)N(Cc2ccccc2[N+](=O)[O-])C(C)C(=O)NO)cc1` (stereo not drawn) [2-(N-(2-nitrobenzyl)-4-methoxyphenylsulfonamido)-N-hydroxypropanamide]: the Ki was 19 nM. This Ki is about 190-fold lower than that of the compound before.

`CC(C(=O)NO)N(Cc1ccccc1[N+](=O)[O-])C(=O)Nc1ccc(F)cc1F` (stereo not drawn) [2-[3-(2,4-Difluoro-phenyl)-1-(2-nitro-benzyl)-ureido]-N-hydroxy-propionamide] registered a Ki of 12 nM. This Ki lies about 1.6-fold lower than the previous one.

As for `CC(C(=O)O)N(Cc1ccccc1[N+](=O)[O-])C(=O)Nc1ccc(F)cc1F` (stereo not drawn) [2-[3-(2,4-Difluoro-phenyl)-1-(2-nitro-benzyl)-ureido]-propionic acid], the Ki was determined as 6500 nM.

The compound `CC(C(=O)NO)N(Cc1ccccc1[N+](=O)[O-])C(=O)Nc1ccc(Cl)c(Cl)c1` (stereo not drawn) [2-[3-(3,4-Dichloro-phenyl)-1-(2-nitro-benzyl)-ureido]-N-hydroxy-propionamide] yielded a Ki of 14 nM.

With `CC(C(=O)O)N(Cc1ccccc1[N+](=O)[O-])C(=O)Nc1ccc(Cl)c(Cl)c1` (stereo not drawn) [2-[3-(3,4-Dichloro-phenyl)-1-(2-nitro-benzyl)-ureido]-propionic acid], the inhibition constant Ki turned out to be 5300 nM.

With `CC(C(=O)NO)N(Cc1ccccc1[N+](=O)[O-])C(=O)Nc1cccc(Cl)c1` (stereo not drawn) [2-[3-(3-Chloro-phenyl)-1-(2-nitro-benzyl)-ureido]-N-hydroxy-propionamide], the Ki is 17 nM.

On to `CC(C(=O)O)N(Cc1ccccc1[N+](=O)[O-])C(=O)Nc1cccc(Cl)c1` (stereo not drawn) [2-[3-(3-Chloro-phenyl)-1-(2-nitro-benzyl)-ureido]-propionic acid], for which the affinity corresponds to a Ki of 6600 nM.

On to `CC(C(=O)NO)N(Cc1ccccc1[N+](=O)[O-])C(=O)Nc1ccc(Cl)cc1` (stereo not drawn) [2-[3-(4-Chloro-phenyl)-1-(2-nitro-benzyl)-ureido]-N-hydroxy-propionamide], for which the Ki amounted to 19 nM.

For the compound `CC(C(=O)O)N(Cc1ccccc1[N+](=O)[O-])C(=O)Nc1ccc(Cl)cc1` (stereo not drawn) [2-[3-(4-Chloro-phenyl)-1-(2-nitro-benzyl)-ureido]-propionic acid], the Ki came to 6800 nM.

`CC(C(=O)NO)N(Cc1ccccc1[N+](=O)[O-])C(=O)Nc1ccc(F)cc1` (stereo not drawn) [2-[3-(4-Fluoro-phenyl)-1-(2-nitro-benzyl)-ureido]-N-hydroxy-propionamide] yielded a Ki of 15 nM.

`CC(C(=O)O)N(Cc1ccccc1[N+](=O)[O-])C(=O)Nc1ccc(F)cc1` (stereo not drawn) [2-[3-(4-Fluoro-phenyl)-1-(2-nitro-benzyl)-ureido]-propionic acid] returned a Ki of 6200 nM.

Consider `CC(C(=O)NO)N(Cc1ccccc1[N+](=O)[O-])C(=S)NC(=O)c1ccccc1` (stereo not drawn) [2-[3-Benzoyl-1-(2-nitro-benzyl)-thioureido]-N-hydroxy-propionamide], for which the affinity corresponds to a Ki of 8 nM.

Turning to `CC(C(=O)O)N(Cc1ccccc1[N+](=O)[O-])C(=S)NC(=O)c1ccccc1` (stereo not drawn) [2-[3-Benzoyl-1-(2-nitro-benzyl)-thioureido]-propionic acid], the affinity corresponds to a Ki of 700 nM.

On to `CC(C(=O)O)N(Cc1ccccc1[N+](=O)[O-])C(=O)Nc1cccc2ccccc12` (stereo not drawn) [2-[3-Naphthalen-1-yl-1-(2-nitro-benzyl)-ureido]-propionic acid], for which the inhibition constant (Ki) came out at 5000 nM. This Ki is about 7.1-fold higher than that of the compound before.

With `CC(C(=O)NO)N(Cc1ccccc1[N+](=O)[O-])Sc1ccc([N+](=O)[O-])cc1[N+](=O)[O-]` (stereo not drawn) [2-[(2,4-Dinitro-phenylsulfanyl)-(2-nitro-benzyl)-amino]-N-hydroxy-propionamide], the inhibition constant (Ki) was 9 nM. Compared with the last compound, the Ki is about 560-fold lower.

In the case of `CC(C(=O)O)N(Cc1ccccc1[N+](=O)[O-])Sc1ccc([N+](=O)[O-])cc1[N+](=O)[O-]` (stereo not drawn) [2-[(2,4-Dinitro-phenylsulfanyl)-(2-nitro-benzyl)-amino]-propionic acid], affinity was put at a Ki of 5200 nM.

The compound `CC(C(=O)NO)N(Cc1ccccc1[N+](=O)[O-])S(=O)(=O)c1cc(Cl)ccc1Cl` (stereo not drawn) [2-[(2,5-Dichloro-benzenesulfonyl)-(2-nitro-benzyl)-amino]-N-hydroxy-propionamide] returned a Ki of 14 nM.

Regarding `CC(C(=O)O)N(Cc1ccccc1[N+](=O)[O-])S(=O)(=O)c1cc(Cl)ccc1Cl` (stereo not drawn) [2-[(2,5-Dichloro-benzenesulfonyl)-(2-nitro-benzyl)-amino]-propionic acid], the affinity corresponds to a Ki of 3400 nM.

For the compound `CC(C(=O)O)N(Cc1ccccc1[N+](=O)[O-])S(=O)(=O)c1ccccc1[N+](=O)[O-]` (stereo not drawn) [2-[(2-Nitro-benzenesulfonyl)-(2-nitro-benzyl)-amino]-propionic acid], the inhibitory constant (Ki) worked out at 4400 nM.

The compound `Cc1cc(C)c(S(=O)(=O)N(Cc2ccccc2[N+](=O)[O-])C(C)C(=O)O)c(C)c1` (stereo not drawn) [2-[(2-Nitro-benzyl)-(2,4,6-trimethyl-benzenesulfonyl)-amino]-propionic acid] came in with a Ki of 6000 nM.

As to `CC(C(=O)O)N(Cc1ccccc1[N+](=O)[O-])Sc1ccccc1[N+](=O)[O-]` (stereo not drawn) [2-[(2-Nitro-benzyl)-(2-nitro-phenylsulfanyl)-amino]-propionic acid], the affinity, expressed as Ki, was 6200 nM.

For `CC(C(=O)O)N(Cc1ccccc1[N+](=O)[O-])S(=O)(=O)c1cccc(C(F)(F)F)c1` (stereo not drawn) [2-[(2-Nitro-benzyl)-(3-trifluoromethyl-benzenesulfonyl)-amino]-propionic acid], the affinity, expressed as Ki, was 400 nM.

In turn, `CC(C(=O)O)N(Cc1ccccc1[N+](=O)[O-])Sc1ccc([N+](=O)[O-])cc1` (stereo not drawn) [2-[(2-Nitro-benzyl)-(4-nitro-phenylsulfanyl)-amino]-propionic acid] yielded a Ki of 6000 nM.

Consider `CC(C(=O)O)N(Cc1ccccc1[N+](=O)[O-])S(=O)(=O)C(F)(F)C(F)(F)C(F)(F)C(F)(F)F` (stereo not drawn) [2-[(2-Nitro-benzyl)-(nonafluorobutane-1-sulfonyl)-amino]-propionic acid], for which the affinity, expressed as Ki, was 2100 nM. Against the preceding compound, the Ki is about 2.9-fold lower.

Turning to `CC(C(=O)O)N(Cc1ccccc1[N+](=O)[O-])S(=O)(=O)c1cccc2cccnc12` (stereo not drawn) [2-[(2-Nitro-benzyl)-(quinoline-8-sulfonyl)-amino]-propionic acid], the Ki amounted to 2000 nM.

In the case of `CC(C(=O)O)N(Cc1ccccc1[N+](=O)[O-])S(=O)(=O)c1cccs1` (stereo not drawn) [2-[(2-Nitro-benzyl)-(thiophene-2-sulfonyl)-amino]-propionic acid], the Ki was 2000 nM.

`Cc1ccc(S(=O)(=O)N(Cc2ccccc2[N+](=O)[O-])C(C)C(=O)O)cc1` (stereo not drawn) [2-[(2-Nitro-benzyl)-(toluene-4-sulfonyl)-amino]-propionic acid] had a Ki of 17000 nM.

`CC(C(=O)O)N(Cc1ccccc1[N+](=O)[O-])S(=O)(=O)c1c(F)c(F)c(F)c(F)c1F` (stereo not drawn) [2-[(2-Nitro-benzyl)-pentafluorobenzenesulfonyl-amino]-propionic acid] came in with a Ki of 300 nM. This Ki is about 57-fold lower than that of the compound before.

Compound `CC(C(=O)O)N(Cc1ccccc1[N+](=O)[O-])S(=O)(=O)Cc1ccccc1` (stereo not drawn) [2-[(2-Nitro-benzyl)-phenylmethanesulfonyl-amino]-propionic acid] showed an inhibitory constant (Ki) of 18000 nM.

The compound `CC(C(=O)O)N(Cc1ccccc1[N+](=O)[O-])S(=O)(=O)C(Cl)(Cl)Cl` (stereo not drawn) [2-[(2-Nitro-benzyl)-trichloromethanesulfonyl-amino]-propionic acid] gave a Ki of 5000 nM.

In the case of `CC(C(=O)O)N(Cc1ccccc1[N+](=O)[O-])S(=O)(=O)C(F)(F)F` (stereo not drawn) [2-[(2-Nitro-benzyl)-trifluoromethanesulfonyl-amino]-propionic acid], the Ki worked out at 5100 nM.

Compound `CC(C(=O)NO)N(Cc1ccccc1[N+](=O)[O-])S(=O)(=O)c1cc(Cl)cc(Cl)c1O` (stereo not drawn) [2-[(3,5-Dichloro-2-hydroxy-benzenesulfonyl)-(2-nitro-benzyl)-amino]-N-hydroxy-propionamide] yielded a Ki of 10 nM.

Take `CC(C(=O)O)N(Cc1ccccc1[N+](=O)[O-])S(=O)(=O)c1cc(Cl)cc(Cl)c1O` (stereo not drawn) [2-[(3,5-Dichloro-2-hydroxy-benzenesulfonyl)-(2-nitro-benzyl)-amino]-propionic acid]: the Ki was found to be 2700 nM.

The compound `CC(C(=O)NO)N(Cc1ccccc1[N+](=O)[O-])S(=O)(=O)c1ccc([N+](=O)[O-])c(Cl)c1` (stereo not drawn) [2-[(3-Chloro-4-nitro-benzenesulfonyl)-(2-nitro-benzyl)-amino]-N-hydroxy-propionamide] returned an inhibitory constant (Ki) of 9 nM.

In the case of `CC(C(=O)O)N(Cc1ccccc1[N+](=O)[O-])S(=O)(=O)c1ccc([N+](=O)[O-])c(Cl)c1` (stereo not drawn) [2-[(3-Chloro-4-nitro-benzenesulfonyl)-(2-nitro-benzyl)-amino]-propionic acid], the affinity, expressed as Ki, was 3100 nM. Compared with the last compound, the Ki is about 340-fold higher.

For `CC(C(=O)O)N(Cc1ccccc1[N+](=O)[O-])S(=O)(=O)c1cccc([N+](=O)[O-])c1` (stereo not drawn) [2-[(3-Nitro-benzenesulfonyl)-(2-nitro-benzyl)-amino]-propionic acid], affinity was put at a Ki of 5200 nM.

`COc1ccc(S(=O)(=O)N(Cc2ccccc2[N+](=O)[O-])C(C)C(=O)O)cc1NC(=O)OC(C)(C)C` (stereo not drawn) [2-[(3-tert-Butoxycarbonylamino-4-methoxy-benzenesulfonyl)-(2-nitro-benzyl)-amino]-propionic acid] yielded a Ki of 2500 nM.

`CC(C(=O)O)N(Cc1ccccc1[N+](=O)[O-])S(=O)(=O)c1cccc(NC(=O)OC(C)(C)C)c1` (stereo not drawn) [2-[(3-tert-Butoxycarbonylamino-benzenesulfonyl)-(2-nitro-benzyl)-amino]-propionic acid] gave an inhibitory constant (Ki) of 2500 nM.

Turning to `CC(=O)c1ccc(S(=O)(=O)N(Cc2ccccc2[N+](=O)[O-])C(C)C(=O)NO)cc1` (stereo not drawn) [2-[(4-Acetyl-benzenesulfonyl)-(2-nitro-benzyl)-amino]-N-hydroxy-propionamide], the inhibition constant Ki was 10 nM.

Consider `CC(=O)c1ccc(S(=O)(=O)N(Cc2ccccc2[N+](=O)[O-])C(C)C(=O)O)cc1` (stereo not drawn) [2-[(4-Acetyl-benzenesulfonyl)-(2-nitro-benzyl)-amino]-propionic acid], for which affinity was put at a Ki of 2000 nM.

As to `CC(=O)Nc1ccc(S(=O)(=O)N(Cc2ccccc2[N+](=O)[O-])C(C)C(=O)NO)cc1` (stereo not drawn) [2-[(4-Acetylamino-benzenesulfonyl)-(2-nitro-benzyl)-amino]-N-hydroxy-propionamide], the Ki stood at 12 nM.

`CC(=O)Nc1ccc(S(=O)(=O)N(Cc2ccccc2[N+](=O)[O-])C(C)C(=O)O)cc1` (stereo not drawn) [2-[(4-Acetylamino-benzenesulfonyl)-(2-nitro-benzyl)-amino]-propionic acid] yielded a Ki of 3300 nM.
